Among the data in PubChem BioAssay (NCI) are TGI and GI50 values, retold here.

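Grown in 96-well plates, cells were treated for 48 hours with each compound at five concentrations. Insufficient inhibition: endpoint recorded as highest concentration tested. The concentration for 50% growth inhibition is given as GI50. The concentration for full growth arrest is given as TGI.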

Some test systems named below: HL-60(TB) leukemia; HOP-92 NSCLC; MALME-3M melanoma; MDA-N; NCI-H226 lung; NCI-H460 lung; NCI-H522 lung; OVCAR-8 ovarian; UACC-62 melanoma.
What all share (assay): NCI tumour cell line growth inhibition, 48 h

`[Cu+2].[O-]c1ccc2ccccc2c1N=Nc1ccccc1.[O-]c1ccc2ccccc2c1N=Nc1ccccc1`: the TGI in the assay with HL-60(TB) leukemia, in the assay on HOP-92 NSCLC, in the assay on MALME-3M melanoma, with MDA-N, in the assay on NCI-H226 lung and with NCI-H460 lung was above 100 µM each time. The TGI with NCI-H522 lung, with OVCAR-8 ovarian and with UACC-62 melanoma was above 100 µM each time.
As to `CCC[C@H](N[C@@H]1CCc2cc(F)cc(F)c2C1)C(=O)Nc1cn(C(C)(C)CNCC(C)(C)C)cn1`, the GI50 in the assay with HL-60(TB) leukemia was 16.3 µM; in the assay on HOP-92 NSCLC, 1.47 µM; with MALME-3M melanoma, 13.4 µM; in the assay on NCI-H226 lung it was 16.5 µM; with NCI-H460 lung it was 19.5 µM; in the assay with NCI-H522 lung, 15.7 µM. For the same compound, the GI50 is 27.5 µM in the assay on OVCAR-8 ovarian and 15.6 µM with UACC-62 melanoma. Moreover, the TGI is 43.4 µM in the assay with HL-60(TB) leukemia; 11.1 µM with HOP-92 NSCLC; 28.2 µM in the assay with MALME-3M melanoma; 52.9 µM in the assay on NCI-H226 lung; 53.8 µM in the assay on NCI-H460 lung; 56.1 µM in the assay on NCI-H522 lung. For the same compound, the TGI was above 100 µM in the assay on OVCAR-8 ovarian and 34.1 µM with UACC-62 melanoma.
On to `COc1ccc(-c2n[nH]nc2-c2csc3ccccc23)cc1OC`, for which the GI50 with HL-60(TB) leukemia is 1.7 µM; in the assay with HOP-92 NSCLC, 0.922 µM; in the assay on MALME-3M melanoma, 13.3 µM; with NCI-H226 lung, 13.2 µM; in the assay with NCI-H460 lung it was 3.56 µM; in the assay with NCI-H522 lung, 0.601 µM. Moreover, the GI50 in the assay on OVCAR-8 ovarian was 4.24 µM; with UACC-62 melanoma it was 2.77 µM. Moreover, the TGI was 25.1 µM with HL-60(TB) leukemia; 6.69 µM with HOP-92 NSCLC; 62.1 µM in the assay on MALME-3M melanoma; 74.6 µM in the assay with NCI-H226 lung; 18.9 µM in the assay with NCI-H460 lung; 2.81 µM in the assay on NCI-H522 lung. Also, the figures for the TGI in the assay on OVCAR-8 ovarian and with UACC-62 melanoma were 39.1 µM and 22.2 µM, respectively.
Turning to `CCCCCCCCCCCCCCCc1cc(O)ccc1N`, the GI50 was 0.142 µM in the assay on HL-60(TB) leukemia; 12.4 µM with HOP-92 NSCLC; above 62.1 µM with MALME-3M melanoma; 8.38 µM with NCI-H226 lung; above 100 µM in the assay on NCI-H460 lung; 0.127 µM with NCI-H522 lung. For the same compound, the GI50 is 43.5 µM with OVCAR-8 ovarian and 13.2 µM in the assay on UACC-62 melanoma. Also, the TGI in the assay on HL-60(TB) leukemia was 0.532 µM; in the assay with HOP-92 NSCLC, 93.7 µM; in the assay with MALME-3M melanoma, above 100 µM; in the assay on NCI-H226 lung, above 49.2 µM; with NCI-H460 lung, above 100 µM; in the assay with NCI-H522 lung, 0.452 µM. In addition, the TGI in the assay on OVCAR-8 ovarian and with UACC-62 melanoma was above 100 µM in each case.
On to `O=[N+]([O-])c1ccccc1N=Nc1c(O)[nH]c2ccccc12`, for which the TGI in the assay on HL-60(TB) leukemia is above 100 µM; in the assay on MDA-N, above 100 µM; with NCI-H226 lung, above 59.1 µM; in the assay on NCI-H460 lung, above 96.6 µM; with NCI-H522 lung it was above 100 µM; in the assay on OVCAR-8 ovarian it was above 53.5 µM. In the assay with UACC-62 melanoma, this compound had a TGI above 100 µM.
As for `O=C(N/N=C1\CCc2ccccc2C1)N/N=C1\CCc2ccccc2C1`, the TGI with HL-60(TB) leukemia, in the assay on MALME-3M melanoma, in the assay with MDA-N, in the assay with NCI-H226 lung, in the assay on NCI-H460 lung and in the assay on NCI-H522 lung was above 10 µM throughout. Further, the TGI in the assay on OVCAR-8 ovarian was above 10 µM.
Turning to `CC(ONC(=O)c1cc(C(F)(F)F)cc(C(F)(F)F)c1)C(=O)Nc1ccc(Cl)cc1` (stereo not given), the GI50 in the assay with HL-60(TB) leukemia was 3.86 µM; in the assay on HOP-92 NSCLC, 2.77 µM; with MALME-3M melanoma, 3.83 µM; in the assay with NCI-H226 lung it was 7.31 µM; with NCI-H460 lung, 3.5 µM; with NCI-H522 lung it was 4.14 µM. For the same compound, the GI50 is 6.2 µM in the assay with OVCAR-8 ovarian and 3.98 µM with UACC-62 melanoma. In addition, the TGI with HL-60(TB) leukemia was 28.3 µM; in the assay on HOP-92 NSCLC, 7.21 µM; in the assay on MALME-3M melanoma, 13.6 µM; in the assay on NCI-H226 lung it was above 64.4 µM; in the assay with NCI-H460 lung, 15 µM; in the assay with NCI-H522 lung, 22.4 µM. Besides, the TGI was above 62.1 µM in the assay on OVCAR-8 ovarian and 14.1 µM in the assay with UACC-62 melanoma.
`Nc1ccc2c(c1)C(=O)c1c(F)cccc1-2`: the TGI in the assay on HOP-92 NSCLC was 93.3 µM; with MALME-3M melanoma, above 100 µM; in the assay on MDA-N, above 100 µM; in the assay on NCI-H226 lung, above 100 µM; in the assay on NCI-H460 lung, above 100 µM; in the assay on NCI-H522 lung it was above 100 µM. Further, the TGI in the assay on OVCAR-8 ovarian and with UACC-62 melanoma was above 100 µM in each case.
With `COc1ccc(C(O)CNC(=O)c2ccccc2)cc1` (stereo not given), the TGI in the assay on HL-60(TB) leukemia, in the assay with HOP-92 NSCLC, in the assay on MALME-3M melanoma, in the assay with MDA-N, in the assay with NCI-H226 lung and in the assay on NCI-H460 lung was above 100 µM each time. Moreover, the TGI in the assay on NCI-H522 lung, in the assay on OVCAR-8 ovarian and in the assay with UACC-62 melanoma was above 100 µM throughout.
Consider `O=S1(=O)CCN(Cc2ccccn2)CC1`, for which the TGI with HOP-92 NSCLC, in the assay on MALME-3M melanoma, in the assay with MDA-N, in the assay on NCI-H226 lung, in the assay with NCI-H460 lung and in the assay on NCI-H522 lung was above 100 µM throughout. In addition, the TGI in the assay with OVCAR-8 ovarian and with UACC-62 melanoma was above 100 µM in each case.
In the case of `COC(=O)c1ccccc1NC(=O)/C(=N\NC(C)(C)C)C(C#N)c1nc(-c2ccc([N+](=O)[O-])cc2)cs1` (stereo not given), the TGI with HL-60(TB) leukemia, in the assay with HOP-92 NSCLC, in the assay on MALME-3M melanoma, with MDA-N, with NCI-H226 lung and in the assay with NCI-H460 lung was above 100 µM each time. In addition, the TGI in the assay with OVCAR-8 ovarian and with UACC-62 melanoma was above 100 µM in each case.
Consider `CC(=O)O[C@@H]1CO[C@H]2O[C@H]3[C@@H](C(C=O)=C[C@H](O)[C@@H]4C5=C(C(C)C)CC[C@]5(C)CC[C@@]34C)[C@@]2(O)C1=O`, for which the TGI in the assay on HOP-92 NSCLC worked out at 0.554 µM; in the assay with MALME-3M melanoma it was 0.347 µM; in the assay with MDA-N, 0.415 µM; in the assay with NCI-H226 lung, 1.02 µM; in the assay with NCI-H460 lung, 0.699 µM; with NCI-H522 lung, 0.24 µM. For the same compound, the values for the TGI in the assay on OVCAR-8 ovarian and in the assay on UACC-62 melanoma were 0.52 µM and 1.06 µM, respectively.
With `CCCCCCCCCCCCCCCC(=O)OCC(O)C1OC(=O)C(O)=C1O` (stereo not given), the TGI is 65.9 µM in the assay with HL-60(TB) leukemia; above 100 µM with MALME-3M melanoma; 94.6 µM in the assay on MDA-N; 47.1 µM in the assay on NCI-H226 lung; above 100 µM in the assay on NCI-H460 lung; above 100 µM in the assay on NCI-H522 lung. The same compound gave a TGI with UACC-62 melanoma of 75 µM.
